According to ChEMBL document CHEMBL1127198, “Identification of antibody mimotopes containing non-natural amino acids by recombinant and synthetic peptide library affinity selection methods” (Bioorg Med Chem Lett, 1993):

Key:
[1] = Binding inhibitory activity of compound was evaluated against bacteriophage anti-gp120 monoclonal antibody by competition ELISA assay
[2] = Loss of affinity of compound was determined for bacteriophage anti-gp120 monoclonal antibody by competition ELISA assay; 10 fold loss in affinity was observed
[3] = Loss of affinity of compound was determined for bacteriophage anti-gp120 monoclonal antibody by competition ELISA assay; 16 fold loss in affinity was observed
[4] = Loss of affinity of compound was determined for bacteriophage anti-gp120 monoclonal antibody by competition ELISA assay; 3 fold loss in affinity was observed

Substance | IC50 [1] [µM] | Loss of affinity [2] | Loss of affinity [3] | Loss of affinity [4]
H-EATRPM-OH | 6.3 | 10 | – | –
H-ESARPM-OH | 6.3 | 10 | – | –
H-ASTRPM-OH | 1.8 | – | – | 3
H-ESTAPM-OH | 10 | – | 16 | –

Second part, the substance after the results:

IC50 [1] [µM] | Loss of affinity [2] | Loss of affinity [3] | Loss of affinity [4] | Substance
0.63 | – | – | – | H-ESTRPM-OH
0.63 | – | – | – | H-ESTRAM-OH
10 | – | 16 | – | H-ESTRPA-OH
